The source made the active and inactive calls. No cut-off for these calls is given here.
Tests used:
Calvarial osteoblast [1] = assay: Osteogenic activity in rat primary calvarial osteoblasts assessed as induction of ALP activity at 1 pM to 1 uM after 10 days by colorimetry; assay type: functional, cell-based
Calvarial osteoblast [2] = assay: Induction of rat calvarial osteoblast mineralization assessed as increase in formation of mineralized calcium nodules at 10 nM after 21 days by alizarin red-S staining-based assay; assay type: functional, cell-based
Ishikawa [3] = assay: Antiestrogenic activity in ER expressing human Ishikawa cells assessed as inhibition of ALP activity at 1 pM to 1 uM; assay type: functional, cell-based
[4] = Toxicity in rat calvarial osteoblast cells at 1 pM to 1 uM after 48 hrs by MTT assay; assay type: cell-based
Calvarial osteoblast [5] = assay: Osteogenic activity in rat primary calvarial osteoblasts assessed as induction of ALP activity at 1 pM to 1 uM after 10 days by colorimetry in presence of anti-estrogen ICI-182780; assay type: functional, cell-based
Ishikawa [6] = assay: Estrogenic activity in ER expressing human Ishikawa cells assessed as induction of ALP activity at 1 pM to 1 uM in presence of 17beta-E2; assay type: functional, cell-based
Ishikawa [7] = assay: Estrogenic activity in ER expressing human Ishikawa cells assessed as induction of ALP activity at 1 pM to 1 uM; assay type: functional, cell-based
[8] = Upregulation of BMP-2 in rat primary calvarial osteoblast cells after 48 hrs by qPCR analysis relative to control; assay type: functional, cell-based
Rattus norvegicus [9] = assay: Osteogenic activity in rat assessed as increase in ALP expression in calvaria administered as sc qd for 3 days by qPCR analysis; assay type: functional, organism-based
Rattus norvegicus [10] = assay: Osteogenic activity in rat assessed as increase in collagen-1 expression in calvaria at 1 mg/kg, sc qd for 3 days by qPCR analysis; assay type: functional, organism-based; parameters: dose 1 mg/kg
Calvarial osteoblast [11] = assay: Induction of rat calvarial osteoblast mineralization assessed as increase in formation of mineralized calcium nodules at 1 pM after 21 days by alizarin red-S staining-based assay; assay type: functional, cell-based
Rattus norvegicus [12] = assay: Osteogenic activity in rat assessed as increase in collagen-1 expression in calvaria at 5 mg/kg, sc qd for 3 days by qPCR analysis; assay type: functional, organism-based; parameters: dose 5 mg/kg
Rattus norvegicus [13] = assay: Osteogenic activity in rat assessed as increase in ALP expression in calvaria at 1 mg/kg, sc qd for 3 days by qPCR analysis; assay type: functional, organism-based; parameters: dose 1 mg/kg
Rattus norvegicus [14] = assay: Osteogenic activity in rat assessed as increase in ALP expression in calvaria at 10 mg/kg, sc qd for 3 days by qPCR analysis; assay type: functional, organism-based; parameters: dose 10 mg/kg
Rattus norvegicus [15] = assay: Osteogenic activity in rat assessed as increase in collagen-1 expression in calvaria at 10 mg/kg, sc qd for 3 days by qPCR analysis; assay type: functional, organism-based; parameters: dose 10 mg/kg
Rattus norvegicus [16] = assay: Osteogenic activity in rat assessed as increase in ALP expression in calvaria at 5 mg/kg, sc qd for 3 days by qPCR analysis; assay type: functional, organism-based; parameters: dose 5 mg/kg
Calvarial osteoblast [17] = assay: Osteogenic activity in rat primary calvarial osteoblasts assessed as induction of ALP activity at 1 pM after 10 days by colorimetry; assay type: functional, cell-based
Calvarial osteoblast [18] = assay: Osteogenic activity in rat calvarial osteoblasts assessed as induction of ALP activity at 10 nM after 48 hrs by spectrophotometry in presence of anti-estrogen ICI-182780; assay type: functional, cell-based
Ishikawa [19] = assay: Estrogenic activity in ER expressing human Ishikawa cells assessed as induction of ALP activity at 10 nM; assay type: functional, cell-based
Ishikawa [20] = assay: Estrogenic activity in ER expressing human Ishikawa cells assessed as induction of ALP activity at 100 pM relative to control; assay type: functional

In the case of `COc1cc(OC)c(-c2coc3cc(O[C@@H]4O[C@H](CO)[C@@H](O)[C@H](O)[C@H]4O)c(OC)c(O)c3c2=O)cc1OC`, the Activity (Calvarial osteoblast [1]) was “inactive”.
With `COc1cc([C@H]2OC[C@H]3[C@@H]2CO[C@@H]3c2cc(OC)c(O[C@@H]3O[C@H](CO)[C@@H](O)[C@H](O)[C@H]3O)c(OC)c2)cc(OC)c1O` the Activity (Calvarial osteoblast [1]) was “inactive”.
With `COC(=O)C/C(=C\c1ccc(O)c(O)c1)C(=O)O` the Activity (Calvarial osteoblast [1]) was “inactive”.
In the case of `O=c1c(O[C@@H]2O[C@H](CO)[C@@H](O)[C@H](O)[C@H]2O)c(-c2ccc(O)c(O)c2)oc2cc(O)cc(O)c12`, the Activity (Calvarial osteoblast [1]) was “inactive”.
In the case of `COc1ccc(-c2coc3cc(O)cc(O)c3c2=O)cc1O` [PRATENSEIN], the Activity (Calvarial osteoblast [2]) was “Active”, the Activity (Ishikawa [3]) was “inactive” and the Activity [4] was “Non-toxic”. For the same compound, the Activity (Calvarial osteoblast [5]) was “Active”, the inhibition (Ishikawa [6]) was “inactive” and the Activity (Ishikawa [7]) was “inactive”. For the same compound, the Activity (Calvarial osteoblast [1]) was “Active”.
With `O=c1c(-c2ccc(O)cc2)coc2cc(O)cc(O)c12` [GENISTEIN] the Activity (Calvarial osteoblast [2]) was “Active”, the Activity (Ishikawa [3]) was “inactive” and the Activity [4] was “Non-toxic”. The fold change (FC) [8] was 5, the Activity (Calvarial osteoblast [5]) was “Active” and the inhibition (Ishikawa [6]) was “inactive”. For the same compound, the Activity (Ishikawa [7]) was “inactive” and the Activity (Calvarial osteoblast [1]) was “Active”.
In the case of `C[C@@H]1O[C@@H](OC[C@H]2O[C@@H](Oc3c(-c4ccc(O)cc4)oc4cc(O)cc(O)c4c3=O)[C@H](O)[C@@H](O)[C@@H]2O)[C@H](O)[C@H](O)[C@H]1O`, the Activity (Calvarial osteoblast [1]) was “inactive”.
For `COc1cc(OC)c(-c2coc3cc(O[C@@H]4O[C@H](CO[C@@H]5OC[C@](O)(CO)[C@H]5O)[C@@H](O)[C@H](O)[C@H]4O)c(OC)c(O)c3c2=O)cc1OC`, the Activity (Rattus norvegicus [9]) was “Dose-dependent effect”, the Activity (Ishikawa [3]) was “inactive” and the Activity [4] was “Non-toxic”. For the same compound, the fold change (FC) [8] was 15, the Activity (Rattus norvegicus [10]) was “Active” and the Activity (Calvarial osteoblast [5]) was “Active”. The Activity (Calvarial osteoblast [11]) was “Active”, the Activity (Rattus norvegicus [12]) was “inactive” and the Activity (Rattus norvegicus [13]) was “Active”. For the same compound, the inhibition (Ishikawa [6]) was “inactive”, the Activity (Ishikawa [7]) was “inactive” and the Activity (Calvarial osteoblast [1]) was “Active”. For the same compound, the Activity (Rattus norvegicus [14]) was “inactive”, the Activity (Rattus norvegicus [15]) was “inactive” and the Activity (Rattus norvegicus [16]) was “Active”. For the same compound, the Activity (Calvarial osteoblast [17]) was “Active”.
With `COc1ccc(-c2coc3cc(O[C@@H]4O[C@H](CO[C@@H]5OC[C@](O)(CO[C@@H]6OC[C@](O)(CO)[C@H]6O)[C@H]5O)[C@@H](O)[C@H](O)[C@H]4O)cc(O)c3c2=O)cc1` the Activity (Calvarial osteoblast [1]) was “inactive”.
For `COc1ccc(-c2coc3cc(O)cc(O)c3c2=O)cc1` [BIOCHANIN], the Activity (Calvarial osteoblast [2]) was “Active”, the Activity [4] was “Non-toxic” and the Activity (Calvarial osteoblast [18]) was “inactive”. For the same compound, the Activity (Calvarial osteoblast [1]) was “Active” and the Activity (Ishikawa [19]) was “Active”.
For `COc1cc(OC)c(-c2coc3cc(O)c(OC)c(O)c3c2=O)cc1OC`, the Activity (Calvarial osteoblast [1]) was “inactive”.
For `O=c1c(O[C@@H]2O[C@H](CO)[C@@H](O)[C@H](O)[C@H]2O)c(-c2ccc(O)cc2)oc2cc(O)cc(O)c12`, the Activity (Calvarial osteoblast [1]) was “inactive”.
For `C[C@@H]1O[C@@H](OC[C@H]2O[C@@H](Oc3c(-c4ccc(O)c(O)c4)oc4cc(O)cc(O)c4c3=O)[C@H](O)[C@@H](O)[C@@H]2O)[C@H](O)[C@H](O)[C@H]1O`, the Activity (Calvarial osteoblast [1]) was “inactive”.
For `C[C@]12CC[C@@H]3c4ccc(O)cc4CC[C@H]3[C@@H]1CC[C@@H]2O` [ESTRADIOL], the “fold change (FC)” value (Ishikawa [20]) was 1.5.
In the case of `COc1ccc(-c2coc3cc(O[C@@H]4O[C@H](CO[C@@H]5OC[C@](O)(CO)[C@H]5O)[C@@H](O)[C@H](O)[C@H]4O)cc(O)c3c2=O)cc1`, the Activity (Calvarial osteoblast [1]) was “inactive”.
